According to ChEMBL document CHEMBL1125065, “Synthesis and anti-HIV activity of carbocyclic 2',3'-didehydro-2',3'-dideoxy 2,6-disubstituted purine nucleosides” (J Med Chem, 1990):
In brackets after ≈: the same amount, converted by molar mass.

How the values were obtained:
[1] = test system: MT2; test: Effective concentration that increases formazan production in infected MT-2 cells; type: functional, cell-based; conditions: Homo sapiens
[2] = test system: P388; test: Inhibitory concentration of compound for P-388 Leukemia cell culture; type: functional; conditions: Mus musculus, read-out: ED50 (the source's name)
[3] = Therapeutic index for the compound was determined (IC50/EC50); conditions: read-out: TI
[4] = test system: MT2; test: Inhibitory concentration that reduces formazan production in uninfected MT-2 cells.; conditions: Homo sapiens
[5] = test system: CCRF-CEM; test: Inhibitory effect against synthesis of p24 gag protein in CEM cells.; type: functional, Homo sapiens
[6] = test system: CCRF-CEM; test: Percent reduction in p24 gag expression in CEM cells; type: functional, Homo sapiens

EC50 [1] [µg/mL] | EC50 [2] [µg/mL] | SMILES | selectivity ratio [3] | IC50 [4] [µg/mL] | p24 synthesis [5] [ng/mL] | Reduction [6] [%]
4.7 (≈ 19.1 µM) | > 100 | Nc1nc(N)c2ncn(C3C=CC(CO)C3)c2n1 (stereo not given) | > 26.6 | > 125 | – | –
– | > 100 | Nc1nc(N)c2nnn(C3C=CC(CO)C3)c2n1 (stereo not given) | – | – | – | –
– | 4.5 (≈ 18.1 µM) | Nc1nc(O)c2nnn(C3C=CC(CO)C3)c2n1 (stereo not given) | – | – | – | –
– | 1 (≈ 3.75 µM) | Nc1nc(Cl)c2nnn(C3C=CC(CO)C3)c2n1 (stereo not given) | – | – | – | –
0.4 (≈ 1.51 µM) | 75 (≈ 282 µM) | Nc1nc(Cl)c2ncn(C3C=CC(CO)C3)c2n1 (stereo not given) | 17.3 | 6.97 (≈ 26.2 µM) | – | –
0.19 (≈ 0.768 µM) | > 100 | Nc1nc2c(ncn2[C@H]2C=C[C@@H](CO)C2)c(=O)[nH]1 [CARBOVIR] | 220 | 41.8 (≈ 169 µM) | 28 | >99.97

Further lines, the compound ahead of its results:

SMILES | EC50 [1] [µg/mL] | EC50 [2] [µg/mL] | selectivity ratio [3] | IC50 [4] [µg/mL] | p24 synthesis [5] [ng/mL] | Reduction [6] [%]
Nc1nc(Cl)c2ncn(C3CCC(CO)C3)c2n1 (stereo not given) | > 100 | > 100 | – | > 100 | – | –
Nc1nc(O)c2nnn(C3CCC(CO)C3)c2n1 (stereo not given) | – | 51 (≈ 204 µM) | – | – | – | –
Nc1nc(N)c2nnn(C3CCC(CO)C3)c2n1 (stereo not given) | – | > 100 | – | – | – | –
Nc1nc(Cl)c2nnn(C3CCC(CO)C3)c2n1 (stereo not given) | – | 18 (≈ 67 µM) | – | – | – | –
Nc1nc(O)c2ncn(C3CCC(CO)C3)c2n1 (stereo not given) | > 100 | > 100 | – | > 100 | – | –
Nc1nc(N)c2ncn(C3CCC(CO)C3)c2n1 (stereo not given) | 16.7 (≈ 67.3 µM) | 80 (≈ 322 µM) | > 5.9 | > 100 | – | –
Nc1ccn([C@H]2CC[C@@H](CO)O2)c(=O)n1 [ZALCITABINE] | 0.29 (≈ 1.37 µM) | – | 152 | 44 (≈ 208 µM) | – | –
Cc1cn([C@H]2C[C@H](N=[N+]=[N-])[C@@H](CO)O2)c(=O)[nH]c1=O [ZIDOVUDINE] | – | – | – | – | 32 | >99.96
